From patent US7064139B2, “Method for treating retroviral infections” (Uniroyal Chemical Company, Inc., priority 2001, dated 2006)
≈ marks a conversion by molar mass, not a printed value.

Experiments:
HIV-1 (IIIB) = test: microbe, parasite or virus in culture; format: cell-based; conditions: for EC50: Human immunodeficiency virus 1, IIIB, CCRF-CEM, read-out: EC50 (ug/ml) HIV-1; for EC50 / EC50 (ug/ml) HIV-1: CEM cells, syncytium formation, day four post infection; for HIV-1 % Protection: protection of CEM cells against virus-induced cytopathicity at the concentration in the previous column
Procedure, shortened: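 Human T-lymphoblast CEM cells at roughly 300,000 cells per ml were infected with about 100 CCID50 of HIV-1 (IIIB). Then 100 μl of the infected suspension went into 200 μl microtiter wells holding 100 μl of 5-fold serial compound dilutions. Inhibition of syncytium formation was scored microscopically on day four post infection, and protection against virus-induced cytopathicity was recorded.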

HIV-2 (ROD) = test: Inhibition of HIV-2 syncytium formation in CEM cells; format: cell-based; conditions: for EC50: Human immunodeficiency virus 2, CCRF-CEM, read-out: EC50 (ug/ml) HIV-2; for EC50 / EC50 (ug/ml) HIV-2: CEM cells, syncytium formation, day four post infection; for HIV-2 % Protection: protection of CEM cells against virus-induced cytopathicity at the concentration in the previous column
Procedure, shortened: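 Human T-lymphoblast CEM cells, suspended at roughly 300,000 cells per ml of culture medium, were infected with about 100 CCID50 of HIV-2 (ROD). Aliquots of 100 μl of infected cells were placed in 200 μl microtiter wells holding 100 μl of serial 5-fold compound dilutions, and syncytium formation was scored microscopically four days after infection.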

Davis strain CMV = test: Reduction of CMV-induced cytopathicity in HEL cells; format: cell-based, human cytomegalovirus (HCMV); conditions: HEL cells; for EC50: Human betaherpesvirus 5, 168 h, read-out: Antiviral EC50 (ug/ml) Davis strain CMV; for EC50 / Antiviral EC50 (ug/ml) Davis strain CMV: virus-induced cytopathicity after seven days; for Antiviral % Inhibition Davis strain CMV: estimate of percent protection at the concentration in the previous column
Procedure, shortened: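 Confluent HEL cells were infected with 100 PFU/well CMV for 1–2 h, then washed and kept in MEM with 2% FCS and test compound. EC50 is the concentration cutting virus-induced cytopathicity by 50% versus untreated control at day 7. Where cytotoxicity interfered, percent protection at the stated concentration is given.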

Row | EC50 (HIV-1 (IIIB)) [µg/mL] | EC50 (HIV-2 (ROD)) [µg/mL] | EC50 (Davis strain CMV) [µg/mL] | EC50 (ug/ml) HIV-1 (HIV-1 (IIIB)) | EC50 (ug/ml) HIV-2 (HIV-2 (ROD)) | Antiviral EC50 (ug/ml) Davis strain CMV (Davis strain CMV) [µg/mL] | Compound | HIV-2 % Protection (HIV-2 (ROD)) [%] | Antiviral % Inhibition Davis strain CMV (Davis strain CMV) [%] | HIV-1 % Protection (HIV-1 (IIIB)) [%]
1 | 0.75 (≈ 2.46 µM) | ≥ 20 | 38 (≈ 124 µM) | – | – | – | Cc1ccc(C)c(C(C)S(=O)(=O)c2cc(C)cc[n+]2[O-])c1 (centres unmarked) [Compound 108, 2-[1-(2,5-Dimethylphenyl)ethylsulfonyl]-4-methylpyridine N-oxide] | 37.5 | – | –
2 | – | – | – | 13.00 µg/mL (≈ 43.1 µM) | 17.0 µg/mL (≈ 56.4 µM) | >50 | [O-][n+]1ccccc1[S+]([O-])Cc1cccc(C(F)(F)F)c1 (centres unmarked) [Compound 85] | – | 20.0 | –
3 | – | – | – | >4 µg/mL | >4.0 µg/mL | 34.5 | Cc1ccc(C[S+]([O-])c2cccc[n+]2[O-])cc1 (centres unmarked) [Compound 91] | 0.0 | – | 0.0
4 | – | – | – | 2.90 µg/mL (≈ 8.82 µM) | 2.9 µg/mL (≈ 8.82 µM) | >5 | O=[N+]([O-])c1ccc(CS(=O)(=O)c2cccc[n+]2[O-])c(Cl)c1 [Compound 69] | – | 20.0 | –
5 | – | – | – | >.8 µg/mL | >0.8 µg/mL | 3.8 | COc1ccc(C[S+]([O-])c2cccc[n+]2[O-])cc1 (centres unmarked) [Compound 86] | 0.0 | – | 0.0
6 | – | – | – | 1.90 µg/mL (≈ 6.16 µM) | 5.0 µg/mL (≈ 16.2 µM) | >5 | Cc1ccc([N+](=O)[O-])c(CS(=O)(=O)c2cccc[n+]2[O-])c1 [Compound 62] | – | 20.0 | –
7 | – | – | – | 9.30 µg/mL (≈ 33.5 µM) | ≧20 ug/ml | >5 | Cc1ccccc1CS(=O)(=O)c1c(C)ccc[n+]1[O-] [Compound 82] | 37.5 | 0.0 | –
8 | – | – | – | 2.30 µg/mL (≈ 7.46 µM) | 2.4 µg/mL (≈ 7.78 µM) | >50 | Cc1ccc(CS(=O)(=O)c2cccc[n+]2[O-])cc1[N+](=O)[O-] [Compound 67] | – | 20.0 | –
9 | – | – | – | >4 µg/mL | >4 µg/mL | 3.4 | Cc1cccc(CSc2cccc[n+]2C)c1.[Cl-] [Compound 142] | 0.0 | – | 0.0
10 | – | – | – | 5.30 µg/mL (≈ 15.5 µM) | 4.7 µg/mL (≈ 13.8 µM) | >5 | O=S(=O)(Cc1ccccc1Oc1ccccc1)c1cccc[n+]1[O-] [Compound 56] | – | 20.0 | –
11 | 0.9 (≈ 3.04 µM) | > 4 | 20 (≈ 67.6 µM) | – | – | – | Cc1ccc(C)c(C(Cl)S(=O)(=O)c2ccccn2)c1 (centres unmarked) [Compound 106, 2-((2,5-dimethylphenyl)chloromethylsulphonyl)pyridine] | 0.0 | – | –
12 | 0.05 (≈ 0.164 µM) | > 20 | 3.2 (≈ 10.5 µM) | – | – | – | Cc1ccc(C)c(C(C)S(=O)(=O)c2c(C)ccc[n+]2[O-])c1 (centres unmarked) [Compound 71, 2-[1-(2,5-Dimethylphenyl)ethylsulfonyl]-3-methylpyridine N-oxide] | 0.0 | – | –
13 | > 0.8 | > 0.8 | 1.3 (≈ 3.72 µM) | – | – | – | O=S(=O)(Cc1c2ccccc2cc2ccccc12)c1cccc[n+]1[O-] [Compound 51, 2[1(9-anthryl)methylsulfonyl]pyridine-N-oxide] | 0.0 | – | 0.0
14 | – | – | – | 11.00 µg/mL (≈ 41.2 µM) | 7.0 µg/mL (≈ 26.2 µM) | >20 | O=S(=O)(Cc1ccc(F)cc1)c1cccc[n+]1[O-] [Compound 29] | – | 10.0 | –
15 | – | – | – | 2.33 µg/mL (≈ 7.78 µM) | 4.1 µg/mL (≈ 13.7 µM) | >5 | O=S(=O)(Cc1ccc2ccccc2c1)c1cccc[n+]1[O-] [Compound 53] | – | 20.0 | –
16 | 1 (≈ 3.14 µM) | 1.3 (≈ 4.09 µM) | > 5 | – | – | – | O=S(=O)(Cc1ccc(Cl)c(Cl)c1)c1cccc[n+]1[O-] [Compound 37, 2-(3,4-dichlorobenzylsulfonyl)-pyridine-N-oxide] | – | 30.0 | –
17 | – | – | – | 12.00 µg/mL (≈ 43.6 µM) | ≧20 ug/ml | 11.0 | Cc1ccc(C)c(C[S+]([O-])c2c(C)ccc[n+]2[O-])c1 (centres unmarked) [Compound 70] | 37.5 | – | –
18 | – | – | – | >20 µg/mL | >20.00 µg/mL | >50 | Cc1ccc[n+]([O-])c1S(=O)(=O)C(C)c1ccccc1 (centres unmarked) [Compound 115] | 0.0 | 40.0 | 0.0
19 | 1.4 (≈ 4.38 µM) | ≥ 20 | 0.8 (≈ 2.5 µM) | – | – | – | CCC(c1cc(C)ccc1C)S(=O)(=O)c1c(C)ccc[n+]1[O-] (centres unmarked) [Compound 79, 2-[[1-(2,5-dimethylphenyl)propyl]sulfonyl]-3-methylpyridine-1-oxide] | 37.5 | – | –
20 | ≥ 100 | > 100 | > 50 | – | – | – | Cc1ccc(C)c(C(C)S(=O)(=O)c2cccc[n+]2[O-])c1 (centres unmarked) [Compound 9, 2-(1-[2,5-Dimethylphenyl]ethylsulfonyl)pyridine N-oxide] | 0.0 | 0.0 | 37.5
